Reference: patent EP3696177A1, “HETEROCYCLIC COMPOUNDS FOR THE CONTROL OF INVERTEBRATE PESTS” (BASF SE, priority 2019, dated 2020)

Columns and labels:
Format in all cases: in vivo
Aedes aegypti = experiment: whole plant or invertebrate; conditions: 48 h, A. aegypti larvae, incubated 2 days, read-out: mortality in comparison with untreated controls (larval mortality)
Method: For evaluating control of yellow fever mosquito (Aedes aegypti) the test unit consisted of 96-well-microtiter plates containing 200µl of tap water per well and 5-15 freshly hatched A. aegypti larvae.
The active compounds were formulated using a solution containing 75% (v/v) water and 25% (v/v) DMSO. Different concentrations of formulated compounds or mixtures were sprayed onto the insect diet at 2.5µl, using a custom built micro atomizer, at two replications.
After application, microtiter plates were incubated at 28 + 1°C, 80 + 5 % RH for 2 days. Larval mortality was then visually assessed.

dichromothrips corbetti = experiment: Orchid thrips floral-immersion test; conditions: 72 h, read-out: mortality in comparison with untreated controls
Method: Dichromothrips corbetti adults used for bioassay are obtained from a colony maintained continu-ously under laboratory conditions. For testing purposes, the test compound is diluted in a 1:1 mix-ture of acetone:water (vol:vol), plus Kinetic at a rate of 0.01% v/v.
Thrips potency of each compound is evaluated by using a floral-immersion technique. Each orchid petal is dipped into treatment solution and allowed to dry in Petri dishes. Treated petals are placed into individual re-sealable plastic along with about 20 adult thrips. All test arenas are held under dark condition and a temperature of about 28°C for duration of the assay. The percent mor-tality is recorded 72 hours after treatment.

Anthonomus grandis = experiment: Boll weevil (Anthonomus grandis) insect diet microtiter plate test; conditions: 120 h, read-out: mortality in comparison with untreated controls (egg and larval mortality)
Method: For evaluating control of boll weevil (Anthonomus grandis) the test unit consisted of 96-well-microtiter plates containing an insect diet and 5-10 A. grandis eggs.
The compounds were formulated using a solution containing 75% v/v water and 25% v/v DMSO. Different concentrations of formulated compounds were sprayed onto the insect diet at 5 µl, using a custom built micro atomizer, at two replications.
After application, microtiter plates were incubated at about 25 + 1°C and about 75 + 5 % relative humidity for 5 days. Egg and larval mortality was then visually assessed.

Aphis craccivora = experiment: Cowpea aphid (Aphis craccivora) spray test on potted cowpea plants; conditions: aphids of various stages, after 72 hours, read-out: mortality in comparison with untreated controls
Method: The active compound is dissolved at the desired concentration in a mixture of 1:1 (vol: vol) distilled water: acetone. Surfactant (Kinetic) is added at a rate of 0.01% (vol/vol). The test solution is prepared at the day of use.
Potted cowpea plants are colonized with approximately 30 - 50 aphids of various stages by man-ually transferring aphid-infested leaf clippings 24 hours before application. Plants are sprayed with the test solutions using a DeVilbiss® hand atomizer at 20- 30 psi (≈ 1.38 to 2.07 bar) after the pest population has been checked. Treated plants are maintained on light carts at about 25- 26°C. Estimate percent mortality is assessed after 72 hours.

Caenorhabditis elegans = Caenorhabditis elegans liquid diet microtiter plate test; conditions: 96 h, read-out: mortality in comparison with untreated controls (nematode motility (mortality))
Method: For evaluating control of Caenorhabditis elegans through contact or systemic means the test unit consisted of 96-well-microtiter plates containing a liquid diet.
The compounds or mixtures were formulated using a solution containing 75% water and 25% DMSO. Different concentrations of formulated compounds were sprayed into the microtiter plate wells at 5µl per well, using a custom built micro atomizer, at two replications. Mixed instar 60-100 C. elegans were transferred into the micro-titer plate wells. After application, the nematodes were incubated at 18 + 1°C, 70 + 5 % RH for 4 days. Nematode motility (mortality) was then visually assessed.

Heliothis virescens = experiment: Tobacco budworm (Heliothis virescens) insect diet microtiter plate test; conditions: 120 h, read-out: mortality in comparison with untreated controls (egg and larval mortality)
Method: For evaluating control of tobacco budworm (Heliothis virescens) the test unit consisted of 96-well-microtiter plates containing an insect diet and 15-25 H. virescens eggs.
The compounds were formulated using a solution containing 75% v/v water and 25% v/v DMSO. Different concentrations of formulated compounds were sprayed onto the insect diet at 10 µl, us-ing a custom built micro atomizer, at two replications.
After application, microtiter plates were incubated at about 28 + 1°C and about 80 + 5 % relative humidity for 5 days. Egg and larval mortality was then visually assessed.

Megoura viciae = experiment: Vetch aphid (Megoura viciae) broad bean leaf disk test; conditions: foliar, 120 h, read-out: mortality in comparison with untreated controls
Method: For evaluating control of vetch aphid (Megoura viciae) through contact or systemic means the test unit consisted of 24-well-microtiter plates containing broad bean leaf disks.
The compounds were formulated using a solution containing 75% v/v water and 25% v/v DMSO. Different concentrations of formulated compounds were sprayed onto the leaf disks at 2.5 µl, us-ing a custom built micro atomizer, at two replications.
After application, the leaf disks were air-dried and 5 - 8 adult aphids placed on the leaf disks in-side the microtiter plate wells. The aphids were then allowed to suck on the treated leaf disks and incubated at about 23 + 1°C and about 50 + 5 % relative humidity for 5 days. Aphid mortality and fecundity was then visually assessed.

Myzus persicae = experiment: Green peach aphid (Myzus persicae) artificial diet/membrane systemic test; conditions: 72 h, read-out: mortality in comparison with untreated controls
From the text: For evaluating control of green peach aphid (Myzus persicae) through systemic means the test unit consisted of 96-well-microtiter plates containing liquid artificial diet under an artificial membrane.
The compounds were formulated using a solution containing 75% v/v water and 25% v/v DMSO. Different concentrations of formulated compounds were pipetted into the aphid diet, using a cus-tom built pipetter, at two replications.
After application, 5 - 8 adult aphids were placed on the artificial membrane inside the microtiter plate wells. The aphids were then allowed to suck on the treated aphid diet and incubated at about 23 + 1°C and about 50 + 5 % relative humidity for 3 days. Aphid mortality and fecundity was then visually assessed.

Nephotettix virescens = experiment: Rice green leafhopper (Nephotettix virescens) spray test on rice seedlings; conditions: adults, after 72 hours, read-out: mortality in comparison with untreated controls
Method: Four to five-week old rice seedlings with cut upper leaf portion are cleaned and washed 24 hours before spraying. The active compounds are formulated in 1:1 acetone:water (vol:vol), and 0.01% vol/vol surfactant (Kinetic) is added. Potted rice seedlings are sprayed with 5-6 ml test solution, air dried, covered with Mylar cages and inoculated with 10 adults. Treated rice plants are kept at about 28-29°C and relative humidity of about 50-60%. Percent mortality is recorded after 72 hours.

Nezara viridula = experiment: Green soldier stink bug (Nezara viridula) soybean pod spray test; conditions: 120 h, late 3rd instar N. viridula, after 5 days, read-out: mortality in comparison with untreated controls
Method: The active compound is dissolved at the desired concentration in a mixture of 1:1 (vol:vol) distilled water: aceteone. Surfactant (Kinetic) is added at a rate of 0.01% (vol/vol).The test solution is prepared at the day of use.
Soybean pods are placed in 90 x 50 mm glass Petri dishes lined with moistened filter paper and inoculated with ten late 3rd instar N. viridula. Using a hand atomizer, an approximately 2 ml solution is sprayed into each Petri dish. Treated set-up is kept at about 25-26°C and relative humidity of about 65-70%. Percent mortality is recorded after 5 days.

Plutella xylostella = experiment: Diamond back moth (Plutella xylostella) cabbage leaf disc dip test; conditions: foliar, 72 h, read-out: mortality in comparison with untreated controls
Method: The active compound is dissolved at the desired concentration in a mixture of 1:1 (vol:vol) distilled water: acetone. Surfactant (Kinetic) is added at a rate of 0.01% (vol/vol). The test solution is pre-pared at the day of use.
Cabbage leaf discs (60mm in diameter) are dipped in test solution and air-dried. Treated leaves are placed in petri dishes lined with moistened filter paper and inoculated with ten 3rd instar larvae. Mortality is recorded 72 hours after treatment. Feeding damage is also recorded using a scale of 0-100%.

Tetranychus kanzawai = experiment: Red spider mite (Tetranychus kanzawai) spray test on cowpea beans; conditions: topical, 72 h, read-out: mortality in comparison with untreated controls
Method: The active compound is dissolved at the desired concentration in a mixture of 1:1 (vol:vol) distilled water: acetone. Add surfactant (Kinetic) is added at a rate of 0.01% (vol/vol). The test solution is prepared at the day of use.
Potted cowpea beans of 4-5 days of age are cleaned with tap water and sprayed with 1-2 ml of the test solution using air driven DeVilbiss® hand atomizer at 20- 30 psi (≈ 1,38 to 2,07 bar). The treated plants are allowed to air dry and afterwards inoculated with 30 or more mites by clipping a cassava leaf section from rearing population. Treated plants are placed inside a holding room at about 25-26°C and about 65-70% relative humidity. Estimate percent mortality is assessed 72 hours after treatment.

CN1C(=O)SC(NC(=O)c2ccc(C3=NOC(c4cc(Cl)cc(Cl)c4)(C(F)(F)F)C3)cc2Cl)C1=O (stereo not shown) [Compound I-1-1]
> 75%: mortality at 2500 ppm (Aedes aegypti) | mortality at 300 ppm (dichromothrips corbetti) | mortality at 2500 ppm (Anthonomus grandis) | mortality at 300 ppm (Aphis craccivora) | mortality at 2500 ppm (Caenorhabditis elegans) | mortality at 2500 ppm (Heliothis virescens) | mortality at 2500 ppm (Megoura viciae) | mortality at 2500 ppm (Myzus persicae) | mortality at 300 ppm (Nephotettix virescens) | mortality at 300 ppm (Nezara viridula) | mortality at 300 ppm (Plutella xylostella) | mortality at 300 ppm (Tetranychus kanzawai)

CCN1C(=O)SC(NC(=O)c2ccc(C3=NOC(c4cc(Cl)cc(Cl)c4)(C(F)(F)F)C3)cc2Cl)C1=O (stereo not shown) [Compound I-1-2]
> 75%: mortality at 2500 ppm (Aedes aegypti) | mortality at 300 ppm (dichromothrips corbetti) | mortality at 2500 ppm (Anthonomus grandis) | mortality at 300 ppm (Aphis craccivora) | mortality at 2500 ppm (Caenorhabditis elegans) | mortality at 2500 ppm (Heliothis virescens) | mortality at 2500 ppm (Megoura viciae) | mortality at 2500 ppm (Myzus persicae) | mortality at 300 ppm (Nephotettix virescens) | mortality at 300 ppm (Nezara viridula) | mortality at 300 ppm (Plutella xylostella) | mortality at 300 ppm (Tetranychus kanzawai)

CCN1C(=O)SC(NC(=O)c2ccc(C3=NOC(c4cc(Cl)cc(Cl)c4)(C(F)(F)F)C3)cc2C)C1=O (stereo not shown) [Compound I-1-5]
> 75%: mortality at 2500 ppm (Aedes aegypti) | mortality at 300 ppm (dichromothrips corbetti) | mortality at 2500 ppm (Anthonomus grandis) | mortality at 300 ppm (Aphis craccivora) | mortality at 2500 ppm (Heliothis virescens) | mortality at 2500 ppm (Megoura viciae) | mortality at 2500 ppm (Myzus persicae) | mortality at 300 ppm (Nephotettix virescens) | mortality at 300 ppm (Nezara viridula) | mortality at 300 ppm (Plutella xylostella) | mortality at 300 ppm (Tetranychus kanzawai)

CCN1C(=O)SC(NC(=O)c2ccc(C3=NOC(c4cc(Cl)c(F)c(Cl)c4)(C(F)(F)F)C3)cc2Cl)C1=O (stereo not shown) [Compound I-1-7]
> 75%: mortality at 2500 ppm (Aedes aegypti) | mortality at 300 ppm (dichromothrips corbetti) | mortality at 2500 ppm (Anthonomus grandis) | mortality at 300 ppm (Aphis craccivora) | mortality at 2500 ppm (Caenorhabditis elegans) | mortality at 2500 ppm (Heliothis virescens) | mortality at 2500 ppm (Megoura viciae) | mortality at 2500 ppm (Myzus persicae) | mortality at 300 ppm (Nephotettix virescens) | mortality at 300 ppm (Nezara viridula) | mortality at 300 ppm (Plutella xylostella) | mortality at 300 ppm (Tetranychus kanzawai)

CN1C(=O)SC(NC(=O)c2ccc(C3=NOC(c4cc(Cl)c(F)c(Cl)c4)(C(F)(F)F)C3)c3c2CCC3)C1=O (stereo not shown) [Compound I-1-9]
> 75%: mortality at 2500 ppm (Aedes aegypti) | mortality at 300 ppm (dichromothrips corbetti) | mortality at 2500 ppm (Anthonomus grandis) | mortality at 300 ppm (Aphis craccivora) | mortality at 2500 ppm (Caenorhabditis elegans) | mortality at 2500 ppm (Heliothis virescens) | mortality at 2500 ppm (Megoura viciae) | mortality at 2500 ppm (Myzus persicae) | mortality at 300 ppm (Nephotettix virescens) | mortality at 300 ppm (Nezara viridula) | mortality at 300 ppm (Plutella xylostella) | mortality at 300 ppm (Tetranychus kanzawai)

Cc1cc(C2=NOC(c3cc(Cl)c(F)c(Cl)c3)(C(F)(F)F)C2)ccc1C(=O)NC1SC(=O)N(C(C)C)C1=O (stereo not shown) [Compound I-1-11]
> 75%: mortality at 2500 ppm (Aedes aegypti) | mortality at 300 ppm (dichromothrips corbetti) | mortality at 2500 ppm (Anthonomus grandis) | mortality at 300 ppm (Aphis craccivora) | mortality at 2500 ppm (Caenorhabditis elegans) | mortality at 2500 ppm (Heliothis virescens) | mortality at 2500 ppm (Megoura viciae) | mortality at 2500 ppm (Myzus persicae) | mortality at 300 ppm (Nephotettix virescens) | mortality at 300 ppm (Nezara viridula) | mortality at 300 ppm (Plutella xylostella) | mortality at 300 ppm (Tetranychus kanzawai)

CN1COC(CNC(=O)c2ccc(C3=NOC(c4cc(Cl)cc(C(F)(F)F)c4)(C(F)(F)F)C3)c3c2CCC3)C1=O (stereo not shown) [Compound I-3-3]
> 75%: mortality at 2500 ppm (Aedes aegypti) | mortality at 300 ppm (dichromothrips corbetti) | mortality at 2500 ppm (Anthonomus grandis) | mortality at 300 ppm (Aphis craccivora) | mortality at 2500 ppm (Heliothis virescens) | mortality at 2500 ppm (Megoura viciae) | mortality at 2500 ppm (Myzus persicae) | mortality at 300 ppm (Nephotettix virescens) | mortality at 300 ppm (Nezara viridula) | mortality at 300 ppm (Plutella xylostella) | mortality at 300 ppm (Tetranychus kanzawai)
